Laboratory results published in ChEMBL document CHEMBL1139760, “Studies on a series of potent, orally bioavailable, 5-HT(1) receptor ligands” (Bioorg Med Chem Lett, 2007).
Calls of active or inactive are those of the source. The calls are words filed in the database; no cut-off is given here.

Tests used:
[1] = molecular target: T1, 5-hydroxytryptamine receptor 1B (Homo sapiens, UniProt P28222); assay: Displacement of [3H]5-HT from human recombinant 5HT1B receptor expressed in CHO cells; format: cell-based
[2] = molecular target: T2, 5-hydroxytryptamine receptor 1D (Homo sapiens, UniProt P28221); assay: Displacement of [3H]5-HT from human recombinant 5HT1D receptor expressed in CHO cells; format: cell-based
[3] = molecular target: T3, Cytochrome P450 1A2 (Homo sapiens, UniProt P05177); assay: Inhibition of CYP1A2; format: ADME
T3 sequence (P05177 whole entry): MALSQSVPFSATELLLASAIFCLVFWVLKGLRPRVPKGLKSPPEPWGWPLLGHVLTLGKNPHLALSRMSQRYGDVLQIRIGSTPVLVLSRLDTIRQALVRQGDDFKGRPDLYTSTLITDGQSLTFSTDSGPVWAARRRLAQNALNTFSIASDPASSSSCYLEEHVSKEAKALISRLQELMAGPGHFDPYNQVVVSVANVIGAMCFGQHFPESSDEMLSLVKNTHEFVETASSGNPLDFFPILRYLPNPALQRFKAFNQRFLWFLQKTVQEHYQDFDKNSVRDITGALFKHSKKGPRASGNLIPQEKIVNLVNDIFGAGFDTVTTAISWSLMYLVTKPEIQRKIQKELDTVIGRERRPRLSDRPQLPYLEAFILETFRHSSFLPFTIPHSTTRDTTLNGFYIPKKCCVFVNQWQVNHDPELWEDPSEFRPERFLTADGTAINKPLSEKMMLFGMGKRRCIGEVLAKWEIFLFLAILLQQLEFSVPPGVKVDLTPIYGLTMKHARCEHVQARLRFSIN

[4] = molecular target: Cytochrome P450 2C9 (Homo sapiens, UniProt P11712); assay: Inhibition of CYP2C9; format: ADME
[5] = molecular target: Cytochrome P450 2C19 (Homo sapiens, UniProt P33261); assay: Inhibition of CYP2C19; format: ADME
[6] = molecular target: Sodium-dependent serotonin transporter (Rattus norvegicus, UniProt P31652)
Description: Inhibition of [3H]5-HT uptake at SERT in rat cortical synaptosomes

[7] = molecular target: T4, 5-hydroxytryptamine receptor 1A (Homo sapiens, UniProt P08908); assay: Displacement of [3H]-WAY100635 from human recombinant 5HT1A receptor expressed in CHO cells
T4 sequence (P08908 whole entry): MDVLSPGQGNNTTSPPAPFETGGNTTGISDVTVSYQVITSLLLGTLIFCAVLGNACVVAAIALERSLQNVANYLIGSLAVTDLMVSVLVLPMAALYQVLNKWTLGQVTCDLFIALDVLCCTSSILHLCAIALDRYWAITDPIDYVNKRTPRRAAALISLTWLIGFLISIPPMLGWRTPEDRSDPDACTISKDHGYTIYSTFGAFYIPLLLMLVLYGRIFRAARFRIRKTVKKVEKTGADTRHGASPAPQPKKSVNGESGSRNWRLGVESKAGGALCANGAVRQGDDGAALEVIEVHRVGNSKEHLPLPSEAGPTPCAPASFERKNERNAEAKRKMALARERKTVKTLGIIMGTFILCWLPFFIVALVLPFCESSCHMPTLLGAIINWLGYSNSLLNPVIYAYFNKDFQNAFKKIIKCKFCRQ

[8] = molecular target: T4, 5-hydroxytryptamine receptor 1A; assay: Displacement of [3H]WAY 100635 from human recombinant 5HT1A receptor expressed in CHO cells; format: cell-based
[9] = molecular target: Cytochrome P450 3A4 (Homo sapiens, UniProt P08684); assay: Inhibition of CYP3A4; format: ADME
[10] = molecular target: Cytochrome P450 2D6 (Homo sapiens, UniProt P10635); assay: Inhibition of CYP2D6; format: ADME
[11] = molecular target: T1, 5-hydroxytryptamine receptor 1B; assay: Intrinsic activity at human recombinant 5HT1B receptor expressed in CHO cells by [35S]GTP-gamma-S binding assay relative to 5-hydroxytryptamine; format: functional, cell-based
[12] = molecular target: T2, 5-hydroxytryptamine receptor 1D; assay: Intrinsic activity at human recombinant 5HT1D receptor expressed in CHO cells by [35S]GTP-gamma-S binding assay relative to 5-hydroxytryptamine; format: functional, cell-based
[13] = molecular target: T5, 5-hydroxytryptamine receptor 1A (Homo sapiens) (UniProt P08908); assay: Intrinsic activity at human recombinant 5HT1A receptor expressed in CHO cells by [35S]GTP-gamma-S binding assay relative to 5-hydroxytryptamine; format: functional, cell-based
T5 sequence (whole entry): T4 sequence (P08908 whole entry)

[14] = system: Liver microsomes; assay: Metabolic stability assessed as intrinsic clearance in rat liver microsomes; format: ADME, Microsome
[15] = system: Liver microsomes; assay: Metabolic stability assessed as intrinsic clearance in human liver microsomes; format: ADME, Microsome
[16] = Clearance in rat blood at 1 mg/kg, iv; format: ADME, organism-based; set-up: dose 1 mg/kg, route intravenous
[17] = Volume of distribution at steady state in rat at 1 mg/kg, iv; format: ADME, organism-based; set-up: dose 1 mg/kg, route intravenous; details: in vivo, read-out: Vdss
[18] = Half life in rat at 1 mg/kg, iv; format: ADME, organism-based; set-up: dose 1 mg/kg, route intravenous; details: in vivo
[19] = Oral bioavailability in rat at 3 mg/kg; format: ADME, organism-based; details: in vivo
[20] = Ratio of drug level in brain to blood in rat at 3 mg/kg, po; format: ADME, organism-based; set-up: dose 3 mg/kg, route oral
[21] = molecular target: T6, Alpha-1A adrenergic receptor (Homo sapiens) (UniProt P35348); assay: Inhibition of adrenergic alpha1 receptor at 1 uM
T6 sequence (whole entry): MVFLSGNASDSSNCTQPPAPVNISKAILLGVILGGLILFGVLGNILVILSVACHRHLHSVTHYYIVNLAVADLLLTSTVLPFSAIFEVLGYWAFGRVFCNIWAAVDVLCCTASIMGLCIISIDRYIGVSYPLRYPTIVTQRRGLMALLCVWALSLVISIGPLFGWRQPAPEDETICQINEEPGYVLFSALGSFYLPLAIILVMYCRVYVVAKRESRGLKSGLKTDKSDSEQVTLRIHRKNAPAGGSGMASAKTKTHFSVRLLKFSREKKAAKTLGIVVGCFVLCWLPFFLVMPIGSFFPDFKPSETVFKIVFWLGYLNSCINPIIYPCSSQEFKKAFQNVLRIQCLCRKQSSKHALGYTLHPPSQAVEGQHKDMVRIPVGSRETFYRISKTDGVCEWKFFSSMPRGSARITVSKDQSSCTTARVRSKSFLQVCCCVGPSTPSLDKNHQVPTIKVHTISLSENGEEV

[22] = molecular target: Histamine H2 receptor (Homo sapiens) (UniProt P25021); assay: Inhibition of histamine H2 receptor at 1 uM
[23] = molecular target: T7, Muscarinic acetylcholine receptor M1 (Homo sapiens) (UniProt P11229); assay: Inhibition of muscarinic M1 receptor at 1 uM
T7 sequence (whole entry): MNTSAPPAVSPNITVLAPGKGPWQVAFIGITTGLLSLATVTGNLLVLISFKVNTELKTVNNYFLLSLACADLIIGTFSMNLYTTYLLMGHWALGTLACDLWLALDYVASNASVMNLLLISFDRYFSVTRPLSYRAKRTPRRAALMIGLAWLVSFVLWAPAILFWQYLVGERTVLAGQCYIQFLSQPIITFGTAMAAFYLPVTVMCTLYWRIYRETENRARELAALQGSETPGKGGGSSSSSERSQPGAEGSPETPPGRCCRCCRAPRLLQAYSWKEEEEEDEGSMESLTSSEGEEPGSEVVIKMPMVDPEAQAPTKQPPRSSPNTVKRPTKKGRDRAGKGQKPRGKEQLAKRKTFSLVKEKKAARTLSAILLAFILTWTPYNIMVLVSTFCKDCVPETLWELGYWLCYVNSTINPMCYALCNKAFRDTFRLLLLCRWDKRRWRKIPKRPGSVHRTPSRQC

[24] = Selectivity for human recombinant 5HT1A receptor over rat cortical SERT
[25] = Selectivity for human recombinant 5HT1B receptor over rat cortical SERT
[26] = Selectivity for human recombinant 5HT1D receptor over rat cortical SERT

Sequence of Sodium-dependent serotonin transporter (P31652 whole entry): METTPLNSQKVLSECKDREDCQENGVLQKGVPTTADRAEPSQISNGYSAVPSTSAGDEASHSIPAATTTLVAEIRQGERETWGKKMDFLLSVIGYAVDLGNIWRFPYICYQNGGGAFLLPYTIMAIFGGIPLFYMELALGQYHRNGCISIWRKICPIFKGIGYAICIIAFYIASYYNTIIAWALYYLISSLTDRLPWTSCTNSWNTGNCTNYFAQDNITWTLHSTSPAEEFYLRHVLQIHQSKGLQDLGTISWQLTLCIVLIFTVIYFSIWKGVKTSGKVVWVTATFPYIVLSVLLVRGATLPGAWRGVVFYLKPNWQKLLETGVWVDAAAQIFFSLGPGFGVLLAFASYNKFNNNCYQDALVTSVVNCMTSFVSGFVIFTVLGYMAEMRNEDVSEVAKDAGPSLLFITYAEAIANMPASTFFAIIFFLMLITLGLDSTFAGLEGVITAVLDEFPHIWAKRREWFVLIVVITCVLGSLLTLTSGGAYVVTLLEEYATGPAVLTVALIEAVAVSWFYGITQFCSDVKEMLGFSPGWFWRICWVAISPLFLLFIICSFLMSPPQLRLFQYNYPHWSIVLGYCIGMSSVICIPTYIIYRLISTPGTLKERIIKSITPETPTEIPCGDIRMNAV
Sequence of Cytochrome P450 2C9 (P11712 whole entry): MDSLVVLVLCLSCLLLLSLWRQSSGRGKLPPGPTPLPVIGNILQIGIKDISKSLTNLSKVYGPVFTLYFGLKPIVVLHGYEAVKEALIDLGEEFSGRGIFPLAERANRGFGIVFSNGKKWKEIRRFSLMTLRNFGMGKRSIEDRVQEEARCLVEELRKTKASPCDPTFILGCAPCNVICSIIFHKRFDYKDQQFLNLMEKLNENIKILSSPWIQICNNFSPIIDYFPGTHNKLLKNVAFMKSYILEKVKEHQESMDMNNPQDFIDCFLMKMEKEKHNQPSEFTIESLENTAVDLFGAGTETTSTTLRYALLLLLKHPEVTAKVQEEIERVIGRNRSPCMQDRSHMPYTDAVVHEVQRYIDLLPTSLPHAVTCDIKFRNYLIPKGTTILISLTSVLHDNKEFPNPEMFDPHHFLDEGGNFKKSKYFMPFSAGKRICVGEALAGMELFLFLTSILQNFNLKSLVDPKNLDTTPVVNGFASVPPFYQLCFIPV
Sequence of Cytochrome P450 2D6 (P10635 whole entry): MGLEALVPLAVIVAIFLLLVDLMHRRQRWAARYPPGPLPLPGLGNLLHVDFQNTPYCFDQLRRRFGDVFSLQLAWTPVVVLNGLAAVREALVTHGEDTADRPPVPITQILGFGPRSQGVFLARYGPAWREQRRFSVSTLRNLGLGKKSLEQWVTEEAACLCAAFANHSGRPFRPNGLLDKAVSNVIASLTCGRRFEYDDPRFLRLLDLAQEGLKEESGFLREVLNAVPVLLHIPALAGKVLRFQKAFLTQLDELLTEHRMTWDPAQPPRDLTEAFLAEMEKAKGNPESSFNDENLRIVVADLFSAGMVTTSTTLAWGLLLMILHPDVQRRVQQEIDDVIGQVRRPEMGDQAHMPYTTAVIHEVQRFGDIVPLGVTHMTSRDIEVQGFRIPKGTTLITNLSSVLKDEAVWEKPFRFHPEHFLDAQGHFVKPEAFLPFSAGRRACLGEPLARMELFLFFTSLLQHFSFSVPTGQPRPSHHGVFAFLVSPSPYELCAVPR
Sequence of Cytochrome P450 2C19 (P33261 whole entry): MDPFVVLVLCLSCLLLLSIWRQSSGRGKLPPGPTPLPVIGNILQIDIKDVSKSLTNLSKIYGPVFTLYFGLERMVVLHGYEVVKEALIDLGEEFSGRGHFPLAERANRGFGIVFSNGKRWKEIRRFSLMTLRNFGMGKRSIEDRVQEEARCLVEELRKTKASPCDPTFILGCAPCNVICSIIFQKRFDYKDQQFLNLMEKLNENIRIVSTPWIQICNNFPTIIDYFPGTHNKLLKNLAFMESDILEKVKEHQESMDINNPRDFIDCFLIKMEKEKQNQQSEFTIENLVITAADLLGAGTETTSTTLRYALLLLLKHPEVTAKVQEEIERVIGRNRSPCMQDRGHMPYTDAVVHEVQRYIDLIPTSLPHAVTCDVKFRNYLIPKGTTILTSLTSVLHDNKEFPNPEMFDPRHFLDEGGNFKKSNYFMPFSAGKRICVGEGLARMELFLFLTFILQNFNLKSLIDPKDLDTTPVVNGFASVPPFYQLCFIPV
Sequence of Cytochrome P450 3A4 (P08684 whole entry): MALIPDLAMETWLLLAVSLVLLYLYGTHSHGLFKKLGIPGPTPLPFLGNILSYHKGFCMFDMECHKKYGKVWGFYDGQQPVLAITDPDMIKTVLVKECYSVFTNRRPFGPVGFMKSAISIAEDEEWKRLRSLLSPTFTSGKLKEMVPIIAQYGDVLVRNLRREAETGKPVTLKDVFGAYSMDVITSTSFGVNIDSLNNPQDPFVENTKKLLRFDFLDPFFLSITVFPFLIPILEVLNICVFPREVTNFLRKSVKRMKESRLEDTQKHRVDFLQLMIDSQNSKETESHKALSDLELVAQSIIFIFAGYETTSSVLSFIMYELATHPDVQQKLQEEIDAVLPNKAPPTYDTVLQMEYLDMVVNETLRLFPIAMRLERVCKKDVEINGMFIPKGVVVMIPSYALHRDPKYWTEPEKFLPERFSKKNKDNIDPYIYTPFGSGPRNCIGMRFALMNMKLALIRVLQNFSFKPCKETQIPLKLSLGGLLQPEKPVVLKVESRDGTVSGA
T1 sequence (P28222 whole entry): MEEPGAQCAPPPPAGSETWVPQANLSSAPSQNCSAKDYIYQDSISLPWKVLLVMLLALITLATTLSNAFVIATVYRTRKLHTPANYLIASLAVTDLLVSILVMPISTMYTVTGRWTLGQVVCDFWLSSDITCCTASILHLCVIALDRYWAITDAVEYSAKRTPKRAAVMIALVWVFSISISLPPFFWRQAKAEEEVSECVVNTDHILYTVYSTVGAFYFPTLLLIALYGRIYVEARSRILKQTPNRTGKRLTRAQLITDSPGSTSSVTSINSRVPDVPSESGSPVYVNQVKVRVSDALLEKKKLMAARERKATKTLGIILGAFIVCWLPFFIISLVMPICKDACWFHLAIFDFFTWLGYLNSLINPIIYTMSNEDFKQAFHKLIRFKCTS
T2 sequence (P28221 whole entry): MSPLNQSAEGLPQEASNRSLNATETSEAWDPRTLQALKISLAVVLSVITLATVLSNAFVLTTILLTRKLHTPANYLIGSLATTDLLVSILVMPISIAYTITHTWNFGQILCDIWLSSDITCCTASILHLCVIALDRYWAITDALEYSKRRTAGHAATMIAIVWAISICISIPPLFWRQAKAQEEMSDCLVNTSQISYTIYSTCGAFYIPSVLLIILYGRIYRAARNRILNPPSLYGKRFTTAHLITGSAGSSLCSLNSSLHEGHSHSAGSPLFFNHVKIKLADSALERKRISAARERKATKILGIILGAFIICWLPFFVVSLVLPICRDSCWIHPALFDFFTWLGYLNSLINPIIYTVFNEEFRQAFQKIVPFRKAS
Sequence of Histamine H2 receptor (Homo sapiens) (P25021 whole entry): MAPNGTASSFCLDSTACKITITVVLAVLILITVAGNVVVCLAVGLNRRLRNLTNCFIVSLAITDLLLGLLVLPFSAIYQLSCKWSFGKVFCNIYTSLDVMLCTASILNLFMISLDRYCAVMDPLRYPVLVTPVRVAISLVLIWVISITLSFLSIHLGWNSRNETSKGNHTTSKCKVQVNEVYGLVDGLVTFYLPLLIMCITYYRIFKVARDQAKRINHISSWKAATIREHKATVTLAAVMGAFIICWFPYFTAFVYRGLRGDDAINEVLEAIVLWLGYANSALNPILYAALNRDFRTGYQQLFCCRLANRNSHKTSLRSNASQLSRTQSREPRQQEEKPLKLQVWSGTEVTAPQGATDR

Row | Ki [1] [µM] | Ki [2] [µM] | IC50 [3] [µM] | IC50 [4] [µM] | IC50 [5] [µM] | Ki [6] [µM] | Ki [7] [µM] | Ki [8] [µM] | IC50 [9] [µM] | IC50 [10] [µM] | Intrinsic activity [11] | Intrinsic activity [12] | Intrinsic activity [13] | clearance [16] [mL/min/kg] | half-life [18] [h] | Structure (SMILES) | also measured
1 | 0.0316 | 0.00316 | 4 | 12 | 16 | 0.158 | 0.00126 | – | – | – | – | – | – | – | – | CCCCN1C(=O)COc2ccc(CN3CCN(CCOc4cccc5nc(C)ccc45)CC3)cc21 | –
2 | 0.0251 | 0.002 | 17 | 4 | 5 | – | 0.00126 | 0.0316 | 9 | 14 | – | – | – | – | – | Cc1ccc2c(OCCN3CCN(Cc4ccc5c(c4)N(CCc4ccccc4)C(=O)CO5)CC3)cccc2n1 | –
3 | – | – | – | – | – | – | – | – | – | – | 0.3 | 0.8 | – | – | – | COc1ccc(NC(=O)c2ccc(-c3ccc(-c4noc(C)n4)cc3C)cc2)cc1N1CCN(C)CC1 | –
4 | – | – | – | – | – | – | – | – | – | – | 0.5 | 0.5 | 0.1 | 50 | 1.3 | Cc1ccc2c(OCCN3CCC(Cc4ccc5c(c4)NC(=O)CO5)CC3)cccc2n1 | CL [14]: 3.4 mL/min/g; CL [15]: 1.2 mL/min/g; Vd [17]: 4.4 L/kg; bioavailability [19]: 40%
5 | 0.00158 | 0.000501 | > 16 | > 16 | > 16 | 0.0794 | – | 0.00316 | > 16 | > 16 | 0.4 | 0.6 | 0 | 34 | 2 | Cc1ccc2c(OCCN3CCN(Cc4ccc5c(c4F)N(C)C(=O)CO5)CC3)cccc2n1 | bioavailability [19]: 65%; Kp [20]: 2.7
6 | 0.0251 | 0.001 | 18 | 14 | – | 2 | 0.00126 | 0.0398 | – | – | 0.4 | 0.3 | 0.1 | – | – | CCN1C(=O)COc2ccc(CN3CCN(CCOc4cccc5nc(C)ccc45)CC3)cc21 | –
7 | 0.1 | 0.01 | – | – | – | 0.0251 | 0.00158 | 0.0631 | – | – | 0.6 | – | 0 | – | – | Cc1ccc2c(OCCN3CCN(Cc4ccc5c(c4)NC(=O)CO5)CC3)cccc2n1 | –
8 | 0.0631 | 0.00631 | 11 | 7 | 11 | 0.316 | 0.00398 | – | 12 | 15 | – | – | – | – | – | Cc1ccc2c(OCCN3CCN(Cc4ccc5c(c4)N(Cc4ccccc4)C(=O)CO5)CC3)cccc2n1 | –
9 | 0.00794 | 0.000501 | > 20 | > 20 | > 20 | 0.1 | 0.00158 | 0.01 | > 20 | > 20 | 0.8 | – | 0 | – | – | Cc1ccc2c(OCCN3CCN(Cc4ccc5c(c4)N(C)C(=O)CO5)CC3)cccc2n1 | –
10 | 0.0316 | 0.002 | – | 18 | – | 0.158 | 0.000251 | 0.0251 | – | – | 0.4 | 0.5 | 0.1 | – | – | CCCN1C(=O)COc2ccc(CN3CCN(CCOc4cccc5nc(C)ccc45)CC3)cc21 | –
11 | 0.0316 | 0.00251 | – | – | – | 1.58 | 0.002 | – | – | – | – | – | – | – | – | Cc1ccc2c(OCCN3CCN(Cc4ccc5c(c4)N(CC(C)C)C(=O)CO5)CC3)cccc2n1 | –
12 | 0.00631 | 0.00251 | – | – | – | 0.0398 | 0.000398 | 0.00631 | – | – | 0.5 | – | 0 | 57 | 1.3 | Cc1ccc2c(OCCN3CCC(Cc4ccc5c(c4)N(C)C(=O)CO5)CC3)cccc2n1 | CL [14]: 4.9 mL/min/g; CL [15]: 0.9 mL/min/g; Vd [17]: 4.2 L/kg; bioavailability [19]: 35%; Kp [20]: 1.3; Activity [21]: Active; Activity [22]: Active; Activity [23]: Active
13 | 0.00158 | 0.00126 | > 9 | > 9 | > 9 | 0.2 | – | 0.00251 | > 9 | > 9 | 0.5 | 0.7 | 0.1 | 23 | 2.8 | CCN1C(=O)COc2ccc(CN3CCN(CCOc4cccc5nc(C)ccc45)CC3)c(F)c21 | bioavailability [19]: 34%; Kp [20]: 1.2
14 | 0.0398 | 0.00398 | – | – | – | 0.1 | 0.000631 | 0.00501 | – | – | 0.6 | – | 0 | – | – | Cc1ccc2c(OCCN3CCC(Cc4ccc5c(c4)N(C(C)C)C(=O)CO5)CC3)cccc2n1 | –
15 | 0.0002 | 0.000398 | > 19 | > 19 | > 19 | 0.0501 | – | 0.00794 | > 19 | > 19 | 0.7 | 0.6 | 0 | 14 | 1.3 | Cc1ccc2c(OCCN3CCN(Cc4cc(F)c5c(c4)N(C)C(=O)CO5)CC3)cccc2n1 | Kp [20]: 3.6
16 | 0.00398 | 0.00158 | – | – | – | 0.126 | 0.000251 | 0.00316 | – | – | 0.4 | 0.6 | 0.1 | 31 | 1.6 | CCN1C(=O)COc2ccc(CC3CCN(CCOc4cccc5nc(C)ccc45)CC3)cc21 | CL [14]: 7.7 mL/min/g; CL [15]: 2.8 mL/min/g; Vd [17]: 2.5 L/kg; Ratio pKi [24]: 30; Ratio pKi [25]: 30; Ratio pKi [26]: 30
